The values below are quoted from earlier work in patent US11667640B2, “Mitoketoscins: mitochondrial-based therapeutics targeting ketone metabolism in cancer cells” (LUNELLA BIOTECH, INC., priority 2017, dated 2023).

Structures are written as SMILES.

This series has as its target T1, ACAT1 (Homo sapiens, UniProt P24752).
T1 sequence (P24752 34-427): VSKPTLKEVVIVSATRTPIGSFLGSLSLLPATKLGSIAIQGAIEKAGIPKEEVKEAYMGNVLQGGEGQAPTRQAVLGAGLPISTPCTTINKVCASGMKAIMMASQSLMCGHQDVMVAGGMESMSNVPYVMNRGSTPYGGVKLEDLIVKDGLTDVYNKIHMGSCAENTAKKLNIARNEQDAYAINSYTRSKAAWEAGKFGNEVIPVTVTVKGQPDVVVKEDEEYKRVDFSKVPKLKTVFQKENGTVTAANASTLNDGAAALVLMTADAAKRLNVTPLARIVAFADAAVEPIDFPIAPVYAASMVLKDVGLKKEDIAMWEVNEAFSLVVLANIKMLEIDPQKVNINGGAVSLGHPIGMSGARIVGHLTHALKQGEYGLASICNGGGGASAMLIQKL
The note with it: Garcia-Bermudez et al, Mol Cell 2016.

With `COC(=O)C1=CCCN(C)C1` [Arecoline], the ACAT1 inhibition result is “potential ACAT1 inhibitor”.
